Values joined by “and” are separate entries in the source; they are usually repeats but may differ in a detail not shown here. Equal values may be shown once. Toxic doses and inconclusive results are not listed.
System: CD2F1 mice, L1210 leukemia ip, survival T/C
Test: NCI In Vivo Anticancer Drug Screen. Data for tumor model L1210 Leukemia (intraperitoneal) in CD2F1 (CDF1) mice
Conditions: higher = longer survival
How it was run: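 In this screen, transplantable tumors were grown in mice given either the compound or its vehicle. Results were expressed as the treated measurement relative to the control measurement.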

[1] = endpoint: mean survival time, dose: 100.0 mg/kg/injection, schedule: Q01DX009 (ip), vehicle: saline with Tween-80
[2] = endpoint: mean survival time, dose: 200.0 mg/kg/injection, schedule: Q01DX009 (ip), vehicle: saline with Tween-80
[3] = endpoint: mean survival time, dose: 400.0 mg/kg/injection, schedule: Q01DX009 (ip), vehicle: saline with Tween-80
[4] = endpoint: mean survival time, dose: 100.0 mg/kg/injection, schedule: Q04DX003 (ip), vehicle: saline with Tween-80
[5] = endpoint: mean survival time, dose: 200.0 mg/kg/injection, schedule: Q04DX003 (ip), vehicle: saline with Tween-80
[6] = endpoint: mean survival time, dose: 400.0 mg/kg/injection, schedule: Q04DX003 (ip), vehicle: saline with Tween-80
[7] = endpoint: mean survival time, dose: 75.0 mg/kg/injection, schedule: Q01DX001 (ip), vehicle: other
[8] = endpoint: mean survival time, dose: 150.0 mg/kg/injection, schedule: Q01DX001 (ip), vehicle: other

CC[C@H]1CN2CCc3cc(OC)c(OC)cc3[C@@H]2C[C@@H]1C[C@H]1NCCc2cc(OC)c(OC)cc21 was tested, and the T/C (endpoint: mean survival time, dose: 2.0 mg/kg/injection, schedule: Q01DX007 (ip), vehicle: Klucel (hydroxypropylcellulose) (HPC)) was 107 % of control, the T/C (endpoint: mean survival time, dose: 2.0 mg/kg/injection, schedule: Q01DX009 (ip), vehicle: Klucel (hydroxypropylcellulose) (HPC)) was 108 % of control and the T/C (endpoint: mean survival time, dose: 2.0 mg/kg/injection, schedule: Q02DX005 (ip), vehicle: saline) was 93 % of control and 102 % of control. The T/C (endpoint: mean survival time, dose: 2.0 mg/kg/injection, schedule: Q03DX003 (ip), vehicle: Klucel (hydroxypropylcellulose) (HPC)) was 110 % of control, the T/C (endpoint: mean survival time, dose: 2.0 mg/kg/injection, schedule: Q04DX003 (ip), vehicle: Klucel (hydroxypropylcellulose) (HPC)) was 104 % of control and the T/C (endpoint: mean survival time, dose: 4.0 mg/kg/injection, schedule: Q01DX007 (ip), vehicle: Klucel (hydroxypropylcellulose) (HPC)) was 118 % of control. For the same molecule, the T/C (endpoint: mean survival time, dose: 4.0 mg/kg/injection, schedule: Q01DX009 (ip), vehicle: Klucel (hydroxypropylcellulose) (HPC)) was 122 % of control, the T/C (endpoint: mean survival time, dose: 4.0 mg/kg/injection, schedule: Q02DX005 (ip), vehicle: saline) was 104 % of control and the T/C (endpoint: mean survival time, dose: 4.0 mg/kg/injection, schedule: Q03DX003 (ip), vehicle: Klucel (hydroxypropylcellulose) (HPC)) was 106 % of control. For the same molecule, the T/C (endpoint: mean survival time, dose: 4.0 mg/kg/injection, schedule: Q04DX003 (ip), vehicle: Klucel (hydroxypropylcellulose) (HPC)) was 104 % of control, the T/C (endpoint: mean survival time, dose: 8.0 mg/kg/injection, schedule: Q01DX007 (ip), vehicle: Klucel (hydroxypropylcellulose) (HPC)) was 105 % of control and the T/C (endpoint: mean survival time, dose: 8.0 mg/kg/injection, schedule: Q01DX009 (ip), vehicle: Klucel (hydroxypropylcellulose) (HPC)) was 101 % of control. The T/C (endpoint: mean survival time, dose: 8.0 mg/kg/injection, schedule: Q03DX003 (ip), vehicle: Klucel (hydroxypropylcellulose) (HPC)) was 110 % of control, the T/C (endpoint: mean survival time, dose: 8.0 mg/kg/injection, schedule: Q04DX003 (ip), vehicle: Klucel (hydroxypropylcellulose) (HPC)) was 110 % of control and the T/C (endpoint: mean survival time, dose: 25.0 mg/kg/injection, schedule: Q04DX003 (ip), vehicle: saline with Tween-80) was 164 % of control and 195 % of control. For the same molecule, the T/C (endpoint: mean survival time, dose: 30.0 mg/kg/injection, schedule: Q04DX003 (ip), vehicle: saline with Tween-80) was 124 % of control and the T/C (endpoint: mean survival time, dose: 40.0 mg/kg/injection, schedule: Q04DX003 (ip), vehicle: saline with Tween-80) was 95 % of control.
With CC(C)c1cc(C(C)(C)C)c(O)c(C(C)(C)C)c1 the T/C (endpoint: mean survival time, dose: 25.0 mg/kg/injection, schedule: Q01DX009 (ip), vehicle: Klucel (hydroxypropylcellulose) (HPC)) was 94 % of control, the T/C (endpoint: mean survival time, dose: 50.0 mg/kg/injection, schedule: Q01DX009 (ip), vehicle: Klucel (hydroxypropylcellulose) (HPC)) was 102 % of control and the T/C (endpoint: mean survival time, dose: 100.0 mg/kg/injection, schedule: Q01DX009 (ip), vehicle: Klucel (hydroxypropylcellulose) (HPC)) was 98 % of control.
For O=C1C=CC(=O)N1c1ccccc1Cl (tested in a mixture with another compound), the T/C [1] was 95 % of control, the T/C [2] was 96 % of control and the T/C [3] was 98 % of control.
For COc1ccc(CCNC(=O)Cc2cc(OC)c(OC)cc2[N+](=O)[O-])cc1OC, the T/C (endpoint: mean survival time, dose: 100.0 mg/kg/injection, schedule: Q01DX001 (ip), vehicle: saline) was 94 % of control, the T/C (endpoint: mean survival time, dose: 200.0 mg/kg/injection, schedule: Q01DX001 (ip), vehicle: saline) was 97 % of control and the T/C (endpoint: mean survival time, dose: 400.0 mg/kg/injection, schedule: Q01DX001 (ip), vehicle: saline) was 94 % of control.
For Cn1c(=O)c2c(ncn2CCSS(=O)(=O)O)n(C)c1=O, the T/C (endpoint: mean survival time, dose: 12.5 mg/kg/injection, schedule: Q01DX005 (ip), vehicle: water) was 100 % of control, the T/C (endpoint: mean survival time, dose: 25.0 mg/kg/injection, schedule: Q01DX005 (ip), vehicle: water) was 94 % of control and the T/C (endpoint: mean survival time, dose: 50.0 mg/kg/injection, schedule: Q01DX005 (ip), vehicle: water) was 102 % of control. The T/C (endpoint: mean survival time, dose: 100.0 mg/kg/injection, schedule: Q01DX005 (ip), vehicle: water) was 100 % of control and the T/C (endpoint: mean survival time, dose: 200.0 mg/kg/injection, schedule: Q01DX005 (ip), vehicle: water) was 98 % of control.
CC(C)c1oc(=O)cc2c1C(O)C1OC(=O)C3(C)C(O)C4OC4C2(C)C13 (configuration not stated) (tested in a mixture with another compound) was tested, and the T/C (endpoint: mean survival time, dose: 100.0 mg/kg/injection, schedule: Q04DX002 (ip), vehicle: saline with Tween-80) was 105 % of control.
CC(=O)OC1CC2CC(C1C)C2(C)C (configuration not stated) was tested, and the T/C [1] was 91 % of control, the T/C [4] was 90 % of control and the T/C [5] was 88 % of control. The T/C [6] was 88 % of control.
CCOC(=O)N1C(=O)c2ccccc2C1=O was tested, and the T/C [1] was 93 % of control, the T/C [2] was 93 % of control and the T/C [3] was 100 % of control.
COC1=CC(=O)C=C(OC)C1=O was tested, and the T/C (endpoint: mean survival time, dose: 4.0 mg/kg/injection, schedule: Q01DX009 (ip), vehicle: saline) was 96 % of control, the T/C (endpoint: mean survival time, dose: 8.0 mg/kg/injection, schedule: Q01DX009 (ip), vehicle: saline) was 98 % of control and the T/C (endpoint: mean survival time, dose: 16.0 mg/kg/injection, schedule: Q01DX009 (ip), vehicle: saline) was 96 % of control.
In the case of O=[N+]([O-])c1ccc(OCc2ccccc2)cc1, the T/C [1] is reported as 98 % of control, the T/C [2] is reported as 98 % of control and the T/C [3] is reported as 98 % of control.
With Cc1ccc2[nH]c(=O)[nH]c(=O)c2n1 the T/C [7] was 98 % of control and the T/C [8] was 98 % of control.
In the case of O=C1NC(=O)c2c(O)ccc(O)c21, the T/C (endpoint: mean survival time, dose: 100.0 mg/kg/injection, schedule: Q01DX001 (ip), vehicle: Klucel (hydroxypropylcellulose) (HPC)) is reported as 114 % of control, the T/C (endpoint: mean survival time, dose: 200.0 mg/kg/injection, schedule: Q01DX001 (ip), vehicle: Klucel (hydroxypropylcellulose) (HPC)) is reported as 91 % of control and the T/C (endpoint: mean survival time, dose: 400.0 mg/kg/injection, schedule: Q01DX001 (ip), vehicle: Klucel (hydroxypropylcellulose) (HPC)) is reported as 95 % of control.
For O=[N+]([O-])c1ccc(Oc2c(Cl)cc(Cl)c(Cl)c2Cl)c([N+](=O)[O-])c1, the T/C [7] was 100 % of control, the T/C [8] was 102 % of control and the T/C (endpoint: mean survival time, dose: 300.0 mg/kg/injection, schedule: Q01DX001 (ip), vehicle: other) was 94 % of control.
CCCCCCCc1c(C)c2ccc(OC)cc2[nH]c1=O was tested, and the T/C [4] was 95 % of control and the T/C [5] was 90 % of control.
For CN(C)S(=O)(=O)C#Cc1ccccc1, the T/C [4] was 104 % of control, the T/C [5] was 97 % of control and the T/C [6] was 102 % of control.
For COc1cccc(C(=O)c2ccccc2NC(C)=O)c1, the T/C [1] was 101 % of control, the T/C [2] was 103 % of control and the T/C [3] was 98 % of control.
CCCCCCCCCCCCCCCCCCN1CCOCC1 was tested, and the T/C (endpoint: mean survival time, dose: 12.5 mg/kg/injection, schedule: Q01DX009 (ip), vehicle: saline with Tween-80) was 94 % of control, the T/C (endpoint: mean survival time, dose: 25.0 mg/kg/injection, schedule: Q01DX009 (ip), vehicle: saline with Tween-80) was 102 % of control and the T/C (endpoint: mean survival time, dose: 50.0 mg/kg/injection, schedule: Q01DX009 (ip), vehicle: saline with Tween-80) was 94 % of control.
Cc1cn(C2CC(O)C(CS[As](C)C)O2)c(=O)[nH]c1=O (configuration not stated) was tested, and the T/C (endpoint: mean survival time, dose: 12.5 mg/kg/injection, schedule: Q01DX005 (ip), vehicle: distilled water + Tween-80) was 98 % of control, the T/C (endpoint: mean survival time, dose: 25.0 mg/kg/injection, schedule: Q01DX005 (ip), vehicle: distilled water + Tween-80) was 102 % of control and the T/C (endpoint: mean survival time, dose: 50.0 mg/kg/injection, schedule: Q01DX005 (ip), vehicle: distilled water + Tween-80) was 102 % of control. For the same molecule, the T/C (endpoint: mean survival time, dose: 100.0 mg/kg/injection, schedule: Q01DX005 (ip), vehicle: distilled water + Tween-80) was 93 % of control.
For [B-][N+]1(C)CC[N+]([B-])(C)CC1 (configuration not stated), the T/C (endpoint: mean survival time, dose: 5.0 mg/kg/injection, schedule: Q01DX009 (ip), vehicle: saline with Tween-80) was 104 % of control, the T/C (endpoint: mean survival time, dose: 5.0 mg/kg/injection, schedule: Q04DX003 (ip), vehicle: saline) was 103 % of control and the T/C (endpoint: mean survival time, dose: 10.0 mg/kg/injection, schedule: Q01DX009 (ip), vehicle: saline with Tween-80) was 96 % of control. For the same molecule, the T/C (endpoint: mean survival time, dose: 10.0 mg/kg/injection, schedule: Q04DX003 (ip), vehicle: saline) was 98 % of control and the T/C (endpoint: mean survival time, dose: 20.0 mg/kg/injection, schedule: Q04DX003 (ip), vehicle: saline) was 98 % of control.
For CCOc1ccc(-c2nc3ccc(-c4nc5ccc(N6CCN(C)CC6)cc5[nH]4)cc3[nH]2)cc1, the T/C (endpoint: median survival time, dose: 0.75 mg/kg/injection, schedule: Q01DX009 (ip), vehicle: saline) was 112 % of control, the T/C (endpoint: median survival time, dose: 0.75 mg/kg/injection, schedule: Q01DX009 (ip), vehicle: suspension in saline) was 94 % of control and the T/C (endpoint: median survival time, dose: 1.5 mg/kg/injection, schedule: Q01DX009 (ip), vehicle: saline) was 112 % of control. For the same molecule, the T/C (endpoint: median survival time, dose: 1.5 mg/kg/injection, schedule: Q01DX009 (ip), vehicle: suspension in saline) was 95 % of control, the T/C (endpoint: median survival time, dose: 3.0 mg/kg/injection, schedule: Q01DX009 (ip), vehicle: suspension in saline) was 104 % of control and the T/C (endpoint: median survival time, dose: 6.0 mg/kg/injection, schedule: Q01DX009 (ip), vehicle: suspension in saline) was 105 % of control. The T/C (endpoint: median survival time, dose: 12.0 mg/kg/injection, schedule: Q01DX009 (ip), vehicle: suspension in saline) was 104 % of control, the T/C (endpoint: median survival time, dose: 24.0 mg/kg/injection, schedule: Q01DX009 (ip), vehicle: saline) was 118 % of control and the T/C (endpoint: median survival time, dose: 24.0 mg/kg/injection, schedule: Q01DX009 (ip), vehicle: suspension in saline) was 117 % of control.
